From US6017883A, “Composition and methods for the inhibition of phagocytes” (Research Corporation Technologies, Inc., priority 1998, dated 2000)
Where no end group is shown, it is not given here.

Tests used:
[1] = tested on: PMN; assay: PMN viability by LDH release; conditions: concentrations that inhibited chemotaxis and oxidant production
Protocol: PMN viability after exposure to NIP (seq id no:1) or control peptide for varying amounts of time was assessed by measuring LDH release using a commercially available kit (Sigma).

[2] = tested on: PMN; assay: fMLP-induced PMN calcium transients; assay type: cell-based, human; conditions: pertussis toxin pretreatment of indo-loaded PMN
[3] = tested on: PMN; conditions: pertussis toxin pretreatment of indo-loaded PMN

## REGSYFFGDNA [NIP, Arg-Glu-Gly-Ser-Tyr-Phe-Phe-Gly-Asp-Asn-Ala]
[1]
  cellular viability as determined by LDH release: did not significantly alter cellular viability

## pertussis toxin
[2]
  rise in cytosolic calcium concentration induced by 1 μM fMLP: Attenuation
[3]
  ionomycin-induced rise in cytosolic calcium: no effect
